This is an account of results in patent publication EP0445920A2, “Use of ethoxy phenoxy acetic acid derivatives against diabetes” (IMPERIAL CHEMICAL INDUSTRIES PLC, priority 1990, dated 1991).

The assay deals with oral glucose tolerance in rats. The assay is described as follows: Oral glucose tolerance test in fasted rats (blood glucose by glucose oxidase method). It counts as in vivo, Male, Alderley Park, Wistar rats. Conditions: rats fasted 24 hours, Glibenclamide 5 mg/kg p.o. at -2.0 h, Compound A 0.1 mg/kg p.o. at -0.5 h, M ± SEM, eight rats/group; for Glucose levels, time relative to oral glucose (minutes) 0: 0 min (before oral glucose load 1g/kg); for Glucose levels, time relative to oral glucose (minutes) 20: 20 min after oral glucose load 1g/kg; for Glucose levels, time relative to oral glucose (minutes) 60: 60 min after oral glucose load 1g/kg; for Glucose levels, time relative to oral glucose (minutes) 120: 120 min after oral glucose load 1g/kg. As for the experimental part: Effects of (S)-4-[2-(2-hydroxy-3-phenoxypropylamino)ethoxy]-N-(2-methoxyethyl)phenoxyacetamide on glibenclamide induced improvements in oral glucose tolerance in rats Glibenclamide is a sulphonylurea commonly used for the treatment of non-insulin dependent diabetes. The effects of (S)-4-[2-(2-hydroxy-3-phenoxypropylamino)ethoxy]-N-(2-methoxyethyl) phenoxyacetamide (compound A) were assessed on glibenclamide induced improvements in oral glucose tolerance. Male, Alderley Park, Wistar rats (weight range 125-150 g) were caged in groups of four in a room with normal lighting, at a temperature of 22°C. The animals were allowed free access to water and chow during an acclimatisation period of five days. At the end of this period the rats were fasted for 24 hours. After fasting a group of 8 rats was anaesthetised and a cardiac blood sample taken. The remaining rats were dosed orally according to the schedule below: [table] Glibenclamide and Compound A were dissolved in an aqueous 0.025% solution of polysorbate. The dosage volume was 0.5 ml/100 g body weight. Thirty minutes after dosing according to the schedule above a further eight rats from each group were bled. The remaining rats were then given an oral glucose load (1g/kg) dosed as a 20% solution of D-glucose (0.5 ml/100 g). Groups of eight rats for each treatment were then anaesthetised and bled 20, 60 and 120 minutes after the glucose load. Glucose levels were assayed using a glucose oxidase method on a KDK glucose analyser (Clandon).

Turning to `COCCNC(=O)COc1ccc(OCCNC[C@H](O)COc2ccccc2)cc1` [Compound A, (S)-4-[2-(2-hydroxy-3-phenoxypropylamino)ethoxy]-N-(2-methoxyethyl) phenoxyacetamide], the “Glucose levels, time relative to oral glucose (minutes) 0” value turned out to be 2.77 ± 0.10 mmol; the “Glucose levels, time relative to oral glucose (minutes) 20” value is 6.16 ± 0.23 mmol; the “Glucose levels, time relative to oral glucose (minutes) 60” value was 5.37 ± 0.28 mmol; the “Glucose levels, time relative to oral glucose (minutes) 120” value is 4.99 ± 0.20 mmol.
On the same counts, the results for `COc1ccc(Cl)cc1C(=O)NCCc1ccc(S(=O)(=O)NC(=O)NC2CCCCC2)cc1` [Glibenclamide] are 3.16 ± 0.13 mmol, 7.77 ± 0.45 mmol, 4.4 ± 0.38 mmol and 3.67 ± 0.27 mmol.
